Results reported in the supplement of paper PMC11208160.

Assay: recombinant UMI read abundance after kanamycin selection (control-corrected) (log10(CPM+1)); higher = more efficient recombination; extreme values may be limits of the assay; sequences stand for … in AGTGCAGAGAAAATCGGCCAGTTTTCTCTGCCTGCAGTCCGCATGCCGTGGGACCCCTTGGGTTCTAACCTGTTGCCTAGATTTATGCAGCGGACTGCCTTTCTCCCAAAGTGATAAACCGG…AGGTTGGTTTCACT; site = the 11-nt donor
Procedure, shortened: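 Sequenced counts of recombinant UMIs were turned into CPM, averaged across replicates and scaled with control-derived factors. The reported figure is log10(CPM+1). Those UMIs, each 12 nt long, tagged donor and donor-binding-loop pairs on a plasmid with a promoterless kanamycin gene, screened as a pool in Escherichia coli with IPTG (0.07 mM) plus kanamycin or without selection.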
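Note: IS621 bridge recombinase in Escherichia coli cells against a fixed T5 target plasmid.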

Sequence	recombinant UMI read abundance (log10)
GCTCCAACATGGACCGGTTTTCCCGGTAATCCGTATTTGTA (site GGTCCAACTTA)	0.0155
GCTCCAACATGGACCGGTTTTCCCGGTAATCCGTATTTGTA (site GTTCCAACTTA)	0.481
GCTCCGACATGGACCGGTTTTCCCGGTAATCCGTATTTGGA (site GCTCCGACTTC)	0.0323
GCTCGATCATGGACCGGTTTTCCCGGTAATCCGTATTTGGA (site GCTCGATCTTC)	1.99
GCTCGTCCATGGACCGGTTTTCCCGGTAATCCGTATTTGAG (site GCTCGTCCTCT)	0.0111
GCTCGTTCATGGACCGGTTTTCCCGGTAATCCGTATTTGAT (site GCTCGTTCTAT)	1.25
GCTCTGTCATGGACCGGTTTTCCCGGTAATCCGTATTTGTT (site GCTCTGTCTAA)	1.59
GCTGAATCATGGACCGGTTTTCCCGGTAATCCGTATTTGCA (site GCTGAATCTTG)	1.83
GCTGACGCATGGACCGGTTTTCCCGGTAATCCGTATTTGAT (site GCTGACGCTAT)	1.53
GCTGCCTCATGGACCGGTTTTCCCGGTAATCCGTATTTGGT (site GCTGCCTCTAC)	0.342
GCTGGTTCATGGACCGGTTTTCCCGGTAATCCGTATTTGTC (site GCTGGTTCTGA)	0.00915
GCTTATACATGGACCGGTTTTCCCGGTAATCCGTATTTGCT (site GCTTATACTAG)	0
GCTTGCCCATGGACCGGTTTTCCCGGTAATCCGTATTTGAG (site GCTTGCCCTAT)	0.0201
GCTTGCCCATGGACCGGTTTTCCCGGTAATCCGTATTTGAG (site GCTTGCCCTCT)	0.0701
GCTTGCCCATGGACCGGTTTTCCCGGTAATCCGTATTTGAG (site GCTTGCCCTGT)	0
GCTTGCCCATGGACCGGTTTTCCCGGTAATCCGTATTTGAG (site GCTTGCCCTTT)	0.107
GCTTGCCCATGGACCGGTTTTCCCGGTAATCCGTATTTGTT (site GCTTGCCCTAA)	0.0266
GCTTGCCCATGGACCGGTTTTCCCGGTAATCCGTATTTGTT (site GCTTGCCCTAC)	0.0939
GCTTGCCCATGGACCGGTTTTCCCGGTAATCCGTATTTGTT (site GCTTGCCCTAG)	0
GCTTGCCCATGGACCGGTTTTCCCGGTAATCCGTATTTGTT (site GCTTGCCCTAT)	0.013
GCTTGGACATGGACCGGTTTTCCCGGTAATCCGTATTTGAC (site GATTGGACTGT)	0
GCTTGGACATGGACCGGTTTTCCCGGTAATCCGTATTTGAC (site GCTTGGACTGT)	2.39
GCTTGGACATGGACCGGTTTTCCCGGTAATCCGTATTTGAC (site GGTTGGACTGT)	0.132
GCTTGGACATGGACCGGTTTTCCCGGTAATCCGTATTTGAC (site GTTTGGACTGT)	0.707
GCTTGGCCATGGACCGGTTTTCCCGGTAATCCGTATTTGAT (site GCTTGACCTAT)	0.00769

Sequence	recombinant UMI read abundance (log10)
GCTTGGCCATGGACCGGTTTTCCCGGTAATCCGTATTTGAT (site GCTTGCCCTAT)	0.00795
GCTTGGCCATGGACCGGTTTTCCCGGTAATCCGTATTTGAT (site GCTTGGCCTAT)	0
GCTTGGCCATGGACCGGTTTTCCCGGTAATCCGTATTTGAT (site GCTTGTCCTAT)	0.00708
GCTTGTACATGGACCGGTTTTCCCGGTAATCCGTATTTGGT (site GCTTGTACTAC)	1.08
GCTTTAACATGGACCGGTTTTCCCGGTAATCCGTATTTGCT (site GCTTTAACTAG)	0.0522
GCTTTCCCATGGACCGGTTTTCCCGGTAATCCGTATTTGAT (site GCTTACCCTAT)	0
GCTTTCCCATGGACCGGTTTTCCCGGTAATCCGTATTTGAT (site GCTTCCCCTAT)	0.00917
GCTTTCCCATGGACCGGTTTTCCCGGTAATCCGTATTTGAT (site GCTTGCCCTAT)	0.00235
GCTTTCCCATGGACCGGTTTTCCCGGTAATCCGTATTTGAT (site GCTTTCCCTAT)	0.343
GGAAACTCATGGACCGGTTTTCCCGGTAATCCGTATTTGTC (site GGAAACTCTGA)	2.42
GGAAAGACATGGACCGGTTTTCCCGGTAATCCGTATTTGCC (site GGAAAGACTGG)	1.64
GGAAAGACATGGACCGGTTTTCCCGGTAATCCGTATTTGCC (site GGACAGACTGG)	0
GGAAAGACATGGACCGGTTTTCCCGGTAATCCGTATTTGCC (site GGAGAGACTGG)	0.347
GGAAAGACATGGACCGGTTTTCCCGGTAATCCGTATTTGCC (site GGATAGACTGG)	0
GGAAAGGCATGGACCGGTTTTCCCGGTAATCCGTATTTGCT (site AGAAAGGCTAG)	1.75
GGAAAGGCATGGACCGGTTTTCCCGGTAATCCGTATTTGCT (site CGAAAGGCTAG)	1.06
GGAAAGGCATGGACCGGTTTTCCCGGTAATCCGTATTTGCT (site GGAAAGGCTAG)	2.39
GGAAAGGCATGGACCGGTTTTCCCGGTAATCCGTATTTGCT (site TGAAAGGCTAG)	1.25
GGAACAGCATGGACCGGTTTTCCCGGTAATCCGTATTTGCC (site GGAACAGCTGG)	3.09
GGAACATCATGGACCGGTTTTCCCGGTAATCCGTATTTGCT (site CGATCATCTAG)	0
GGAACATCATGGACCGGTTTTCCCGGTAATCCGTATTTGCT (site GGAACATCTAG)	2.03
GGAACTTCATGGACCGGTTTTCCCGGTAATCCGTATTTGGC (site GGAACTTCTGC)	1.94
GGAAGATCATGGACCGGTTTTCCCGGTAATCCGTATTTGAA (site GGAAGATCTTT)	2.06
GGACACCCATGGACCGGTTTTCCCGGTAATCCGTATTTGTT (site GGACACCCTAA)	0.444
GGACACCCATGGACCGGTTTTCCCGGTAATCCGTATTTGTT (site GGCCACCCTAA)	0.011

Sequence	recombinant UMI read abundance (log10)
GGACACCCATGGACCGGTTTTCCCGGTAATCCGTATTTGTT (site GGGCACCCTAA)	0.0209
GGACACCCATGGACCGGTTTTCCCGGTAATCCGTATTTGTT (site GGTCACCCTAA)	0.00995
GGACACGCATGGACCGGTTTTCCCGGTAATCCGTATTTGAC (site GGACACGCTGT)	2.38
GGACGCGCATGGACCGGTTTTCCCGGTAATCCGTATTTGGA (site GGACGCGCTTC)	0.00923
GGACGGCCATGGACCGGTTTTCCCGGTAATCCGTATTTGCG (site GGACGGCCTCG)	0.137
GGACTAGCATGGACCGGTTTTCCCGGTAATCCGTATTTGTA (site GGACTAGCTTA)	2.56
GGAGACACATGGACCGGTTTTCCCGGTAATCCGTATTTGTC (site GGAGACACTGA)	2.59
GGAGCATCATGGACCGGTTTTCCCGGTAATCCGTATTTGAA (site GGAGCATCTTT)	1.8
GGAGGCCCATGGACCGGTTTTCCCGGTAATCCGTATTTGAT (site GGAGGCCCTAT)	0.727
GGAGGGCCATGGACCGGTTTTCCCGGTAATCCGTATTTGGC (site GGAGGGCCTGC)	0
GGAGGTACATGGACCGGTTTTCCCGGTAATCCGTATTTGCG (site GGAGGTACTCG)	1.31
GGAGTCGCATGGACCGGTTTTCCCGGTAATCCGTATTTGGT (site GGAGTAGCTAC)	0.278
GGAGTCGCATGGACCGGTTTTCCCGGTAATCCGTATTTGGT (site GGAGTCGCTAC)	0.854
GGAGTCGCATGGACCGGTTTTCCCGGTAATCCGTATTTGGT (site GGAGTGGCTAC)	0.0282
GGAGTCGCATGGACCGGTTTTCCCGGTAATCCGTATTTGGT (site GGAGTTGCTAC)	0.00431
GGAGTGACATGGACCGGTTTTCCCGGTAATCCGTATTTGGT (site GGAGTGACTAC)	0.736
GGAGTGACATGGACCGGTTTTCCCGGTAATCCGTATTTGGT (site GGAGTGCCTAC)	0.00536
GGAGTGACATGGACCGGTTTTCCCGGTAATCCGTATTTGGT (site GGAGTGGCTAC)	0.259
GGAGTGACATGGACCGGTTTTCCCGGTAATCCGTATTTGGT (site GGAGTGTCTAC)	0.92
GGAGTGGCATGGACCGGTTTTCCCGGTAATCCGTATTTGCT (site GGAGTGGCTAA)	0.463
GGAGTGGCATGGACCGGTTTTCCCGGTAATCCGTATTTGCT (site GGAGTGGCTAC)	0.163
GGAGTGGCATGGACCGGTTTTCCCGGTAATCCGTATTTGCT (site GGAGTGGCTAG)	2.36
GGAGTGGCATGGACCGGTTTTCCCGGTAATCCGTATTTGCT (site GGAGTGGCTAT)	0.809
GGAGTGGCATGGACCGGTTTTCCCGGTAATCCGTATTTGGC (site GGAGTGGCTAC)	0.502
GGAGTGGCATGGACCGGTTTTCCCGGTAATCCGTATTTGGC (site GGAGTGGCTCC)	0.101
